The assay deals with LRRK2 (Homo sapiens, UniProt Q5S007, G2019S). As to the kind of experiment: loss of constitutive phosphorylation in cells. The format is cell-based.
Sequence of LRRK2 (Q5S007 whole entry G2019S): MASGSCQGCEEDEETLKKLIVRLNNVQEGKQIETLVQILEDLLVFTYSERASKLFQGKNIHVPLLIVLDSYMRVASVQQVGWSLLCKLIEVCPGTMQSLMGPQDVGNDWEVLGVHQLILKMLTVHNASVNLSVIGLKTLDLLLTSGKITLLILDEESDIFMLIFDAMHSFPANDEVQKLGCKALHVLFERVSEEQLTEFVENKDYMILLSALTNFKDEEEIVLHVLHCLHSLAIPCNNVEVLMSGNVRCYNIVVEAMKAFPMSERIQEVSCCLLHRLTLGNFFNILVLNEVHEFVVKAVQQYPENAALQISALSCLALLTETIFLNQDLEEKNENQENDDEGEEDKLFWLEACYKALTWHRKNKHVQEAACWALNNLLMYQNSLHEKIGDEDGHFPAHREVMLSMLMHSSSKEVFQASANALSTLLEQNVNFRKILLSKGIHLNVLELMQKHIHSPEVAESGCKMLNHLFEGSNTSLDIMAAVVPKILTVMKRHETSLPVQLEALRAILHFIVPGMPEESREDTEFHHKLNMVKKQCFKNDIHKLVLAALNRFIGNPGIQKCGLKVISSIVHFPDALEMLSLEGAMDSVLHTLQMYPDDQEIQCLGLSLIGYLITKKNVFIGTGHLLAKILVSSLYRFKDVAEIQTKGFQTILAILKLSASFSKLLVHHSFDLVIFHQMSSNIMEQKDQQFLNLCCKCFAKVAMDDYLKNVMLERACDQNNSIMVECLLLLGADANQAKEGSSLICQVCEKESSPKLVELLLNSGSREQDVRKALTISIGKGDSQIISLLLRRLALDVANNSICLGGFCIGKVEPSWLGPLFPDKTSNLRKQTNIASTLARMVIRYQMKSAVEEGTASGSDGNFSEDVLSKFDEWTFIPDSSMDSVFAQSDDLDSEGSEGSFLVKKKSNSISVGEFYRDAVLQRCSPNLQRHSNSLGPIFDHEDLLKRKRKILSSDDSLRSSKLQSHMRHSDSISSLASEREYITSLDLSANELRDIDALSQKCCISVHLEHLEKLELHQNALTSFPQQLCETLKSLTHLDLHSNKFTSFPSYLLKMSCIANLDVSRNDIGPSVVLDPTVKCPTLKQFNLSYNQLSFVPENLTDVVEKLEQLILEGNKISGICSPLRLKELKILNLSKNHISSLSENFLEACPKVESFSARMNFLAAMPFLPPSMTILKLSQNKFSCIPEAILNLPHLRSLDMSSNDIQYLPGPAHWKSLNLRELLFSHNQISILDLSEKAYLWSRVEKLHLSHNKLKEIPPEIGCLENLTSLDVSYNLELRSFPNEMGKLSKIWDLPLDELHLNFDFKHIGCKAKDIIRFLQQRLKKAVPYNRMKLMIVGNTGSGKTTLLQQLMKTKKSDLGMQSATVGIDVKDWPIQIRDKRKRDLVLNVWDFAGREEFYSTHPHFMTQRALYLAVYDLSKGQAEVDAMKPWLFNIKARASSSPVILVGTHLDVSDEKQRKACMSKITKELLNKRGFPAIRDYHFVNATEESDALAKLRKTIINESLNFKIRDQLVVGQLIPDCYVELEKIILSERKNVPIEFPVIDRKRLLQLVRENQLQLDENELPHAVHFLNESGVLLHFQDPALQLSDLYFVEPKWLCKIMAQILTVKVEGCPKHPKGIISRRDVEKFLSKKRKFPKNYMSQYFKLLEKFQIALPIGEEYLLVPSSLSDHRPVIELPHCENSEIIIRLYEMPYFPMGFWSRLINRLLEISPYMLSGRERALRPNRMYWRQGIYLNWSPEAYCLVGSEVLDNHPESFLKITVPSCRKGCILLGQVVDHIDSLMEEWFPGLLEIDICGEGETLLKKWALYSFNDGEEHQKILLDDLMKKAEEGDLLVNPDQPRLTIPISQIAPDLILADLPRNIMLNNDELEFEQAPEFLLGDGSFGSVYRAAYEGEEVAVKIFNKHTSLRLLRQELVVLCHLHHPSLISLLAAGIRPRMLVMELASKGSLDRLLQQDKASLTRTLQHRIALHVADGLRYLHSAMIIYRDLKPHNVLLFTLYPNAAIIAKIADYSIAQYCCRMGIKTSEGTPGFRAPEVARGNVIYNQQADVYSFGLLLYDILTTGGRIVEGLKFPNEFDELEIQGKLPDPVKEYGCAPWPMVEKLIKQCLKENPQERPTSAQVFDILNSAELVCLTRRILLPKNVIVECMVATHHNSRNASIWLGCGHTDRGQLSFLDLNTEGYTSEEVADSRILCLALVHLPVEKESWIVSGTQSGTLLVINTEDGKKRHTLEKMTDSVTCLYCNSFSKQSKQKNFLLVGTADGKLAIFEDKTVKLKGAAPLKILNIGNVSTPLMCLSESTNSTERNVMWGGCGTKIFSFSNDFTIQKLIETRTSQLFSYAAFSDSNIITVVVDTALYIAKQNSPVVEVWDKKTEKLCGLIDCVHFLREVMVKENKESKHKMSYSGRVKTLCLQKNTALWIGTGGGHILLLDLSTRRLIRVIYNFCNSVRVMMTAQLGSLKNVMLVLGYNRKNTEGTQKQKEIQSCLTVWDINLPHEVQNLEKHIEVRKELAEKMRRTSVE

For the compound `COc1cc(C(=O)N2CCC(N3CCN(C)CC3)CC2)ccc1Nc1ncc2c(n1)N(C)c1ccccc1C(=O)N2C` [LRRK2-IN1], the “loss of constitutive phosphorylation in cells” value is “The pathogenic G2019S mutation in the kinase domain is phosphorylated and sensitive to the effects of LRRK2-IN1”.

These data come from PMC4268884 (Nature communications, 2014).
